Results: BindingDB's records for doi:10.1021/jm00090a012 (National Institute of Diabetes and Digestive and Kidney …, 1992)

Tests used:
[1] = Binding affinity against sigma receptor from guinea pig brain, using [3H](+)-3-PPP as radioligand.
[2] = Binding affinity against sigma receptor from guinea pig brain, using [3H](+)-pentazocine as radioligand.
[3] = target: Sigma non-opioid intracellular receptor 1 (Cavia porcellus) (UniProt Q60492); assay: as above
[4] = Binding affinity against phencyclidine (PCP) receptor from guinea pig brain, using [3H]TCP as radioligand.

Sigma non-opioid intracellular receptor 1 (Cavia porcellus), sequence (Q60492 whole entry, looked up): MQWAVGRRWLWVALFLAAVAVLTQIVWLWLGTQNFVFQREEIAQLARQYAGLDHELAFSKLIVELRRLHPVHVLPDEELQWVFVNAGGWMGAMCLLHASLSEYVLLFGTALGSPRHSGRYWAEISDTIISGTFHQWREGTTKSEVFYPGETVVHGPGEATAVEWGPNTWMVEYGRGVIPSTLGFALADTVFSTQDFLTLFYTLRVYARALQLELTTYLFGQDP

| SMILES | Ki [1] | Ki [2] | Ki [3] | Ki [4] |
| --- | --- | --- | --- | --- |
| FCCCCCN1CCN(CCc2ccc(Cl)c(Cl)c2)CC1 | 0.86 nM | 0.52 nM |  |  |
| FCCCN(CCc1ccc(Cl)c(Cl)c1)CCN1CCCC1 | 4.22 nM |  |  |  |
| FCCCN1CCN(CCc2ccc(Cl)c(Cl)c2)CC1 |  |  | 0.39 nM |  |
| Clc1ccc(CCN2CCN(CCCI)CC2)cc1Cl | 1.3 nM | 1.2 nM |  |  |
| CCCCCN1CC[C@@]2(C)c3cc(O)ccc3CC1[C@H]2C [(6R,11S)-6,11-Dimethyl-3-pentyl-1,2,3,4,5,6-hexahydro-2,6-methano-benzo[d]azocin-8-ol] |  |  |  | 9040 nM |
